Read-outs that look alike come from different tables or passages of the source. Where only a bound is given, the exact number is not on record here.

The results in this text go back to patent EP2078717A1, “6-Pyrimidinyl-pyrimid-2-one derivative” (sanofi-aventis, priority 2008, dated 2009).

One assay deals with tau phosphorylation. Nature of the assay: Inhibitory activity on tau phosphorylation in vivo (pS396 Western blot of cortex). Further details: species or system male CD-1 mice. To be noted: 10 mg/kg p.o., cortex removed after 1 hour, pS396 antibody; ** means statistically significant. The protocol:
Experiment 7 : Inhibitory activity on tau phosphorylation in vivo
Test compound was administrated to male CD-1 mice of 5-6 weeks weighing 25-35 g (Charles River Japan, inc.) at 10 mg/kg p.o. (0.5% polyethylene glycol sorbitan monolaurate 80 (Tween80)/water suspension) and after 1 hour, mice were decapitated and cortex was promptly removed, followed by being frozen in liquid nitrogen. […] Protein concentrations were determined using DC protein assay kit (BIO-RAD). Supernatants were diluted with sample buffer (62.5 mM Tris-HCl, 25% glycerol, 2% SDS, 0.01% Bromophenol Blue, pH 6.8) to adjust the protein concentrations around […] and then boiled for 5 minutes. Samples (10 µ g) were separated on 10% sodium dodecyl sulfate-polyacrylamide electrophoresis (SDS-PAGE) mini slab gels and transferred onto polyvinylidene difluoride (PVDF) membranes. Membranes were incubated with phosphate buffered saline (PBS) containing 5% non-fat milk for 1 hour at room temperature and then probed with pS396 anti-body (BIOSOURCE) over night at 4 °C. Anti-rabbit IgG horseradish peroxidase (HRP) conjugated antibody (Promega) was used as secondary antibody. Membranes were visualized by Enhanced ChemiLuminescence (ECL) kit (Amersham Bioscience) and detected by LAS 1000 (Fuji Photo Film).
A general note: Immunoblotting shows a protein as a band on a membrane.

A further assay concerns normal mice. Put plainly: Object recognition (OR) test of episodic memory in normal mice. It counts as in vivo. The note with it: for minimal effective dose: Mus musculus, po.
For a further assay, the system named is scopolamine-treated mice. Nature of the assay: Object recognition (OR) test of episodic memory in scopolamine-treated mice. To be noted: for recognition index (RI): scopolamine 1 mg/kg 30 minutes before acquisition, 3 hours inter-trial interval.

Take `Cc1nc(-c2ccc([C@H]3CN(c4nc(-c5ccncn5)cc(=O)n4C)CCO3)cc2)no1` [Compound of the present invention]: in the assay with tau phosphorylation, the “in vivo 10 mg/kg, % phosphorylation against vehicle” value is recorded as 58.14** %. Moreover, the “recognition index (RI)” value with normal mice (1 mg/kg p.o. 1 hour before acquisition and retention sessions, 24 hours inter-trial interval) came to 50.3%; in the assay with normal mice (3 mg/kg p.o. 1 hour before acquisition and retention sessions, 24 hours inter-trial interval), 52.6%; in the assay with normal mice (3 mg/kg p.o. once immediately after the acquisition phase, 24 hours inter-trial interval), 54.6%; with normal mice (10 mg/kg p.o. 1 hour before acquisition and retention sessions, 24 hours inter-trial interval) it was 60.4%; with normal mice (10 mg/kg p.o. once immediately after the acquisition phase, 24 hours inter-trial interval), 58.6%; in the assay on normal mice (30 mg/kg p.o. 1 hour before acquisition and retention sessions, 24 hours inter-trial interval) it was 62.9%. Moreover, the “recognition index (RI)” value with normal mice (30 mg/kg p.o. once immediately after the acquisition phase, 24 hours inter-trial interval) stood at 60.0%; in the assay on normal mice (normal mice of the scopolamine experiment, 10 mg/kg p.o. 1 hour before acquisition, 3 hours inter-trial interval) it was 61.7%; with normal mice (normal mice of the scopolamine experiment, 30 mg/kg p.o. 1 hour before acquisition, 3 hours inter-trial interval), 59.7%; in the assay on scopolamine-treated mice (10 mg/kg p.o. 1 hour before acquisition) it was 52.7%; with scopolamine-treated mice (30 mg/kg p.o. 1 hour before acquisition), 60.4%. For the same compound, the minimal effective dose in the assay with normal mice (normal mice, summary, read-out: minimal effective dose, increases episodic memory and consolidates episodic memory trace) is 10 mg/kg; in the assay with normal mice (p.o. 1 hour before acquisition and retention sessions, 24 hours inter-trial interval, read-out: dose from which memory performance increased significantly) it was not below 10 mg/kg; in the assay with normal mice (p.o. once immediately after the acquisition phase, read-out: minimal effective dose, consolidation of episodic memory) it was 10 mg/kg; in the assay with scopolamine-treated mice (Mus musculus, po, read-out: Minimal Effective Dose, prevention of episodic memory deficits) it was 10 mg/kg. In addition, the “effect on episodic memory deficits induced by scopolamine” value in the assay with scopolamine-treated mice (single oral administration 3mg/kg) is given as “ineffective”; in the assay with scopolamine-treated mice (single oral administration 10 mg/kg, 30 minutes before scopolamine, 1 hour before acquisition) it was “totally reversed”.
As to `Cn1c(N2CCOC(c3nc(-c4ccccc4)no3)C2)nc(-c2ccncn2)cc1=O` (centres unmarked) [compound 1], the “in vivo 10 mg/kg, % phosphorylation against vehicle” value with tau phosphorylation is 92.12%.
The same measure, in the same setting: with `Cn1c(N2CCOC(c3noc(-c4ccccc4)n3)C2)nc(-c2ccncn2)cc1=O` (centres unmarked) [compound 2, 1-Methyl-2-[2-(5-phenyl-[1,2,4]oxadiazol-3-yl)-morpholin-4-yl]-1H-[4,4']bipyrimidinyl-6-one] the figure was 79.21%; with `Cn1c(N2CCOC(c3ccc(-c4ccoc4)cc3)C2)nc(-c2ccncn2)cc1=O` (centres unmarked) [compound 3, 2-[2-(4-Furan-3-yl-phenyl)-morpholin-4-yl]-1-methyl-1H-[4,4']bipyrimidinyl-6-one], 71.44%; with `Cn1ccnc1-c1ccc(C2CN(c3nc(-c4ccncn4)cc(=O)n3C)CCO2)cc1` (centres unmarked) [compound 4, 1-Methyl-2-{2-[4-(1-methyl-1H-imidazol-2-yl)-phenyl]-morpholin-4-yl}-1H-[4,4']bipyrimidinyl-6-one], 71.21%.
Still for that read-out and setting: the same measure for `Cn1c(N2CCOC(c3ccc(-n4cccn4)cc3)C2)nc(-c2ccncn2)cc1=O` (centres unmarked) [compound 5, 1-Methyl-2-[2-(4-pyrazol-1-yl-phenyl)-morpholin-4-yl]-1H-[4,4']bipyrimidinyl-6-one]: 53.35** %.
